Test [1] deals with T1, Mu-type opioid receptor (Homo sapiens, UniProt P35372). In words: Inhibitory activity against non-selective opiate receptor.
Test [2] addresses T1, Mu-type opioid receptor. In words: Binding affinity towards non-selective opiate receptor.
The target in test [3] is T1, Mu-type opioid receptor. As to the kind of experiment: (§1) Inhibitory activity against non-selective opiate receptor; NA=Not active.
Test [4] addresses T1, Mu-type opioid receptor. In words: Binding affinity towards non-selective opiate receptor; NA=Not active.
The target of test [5] is T1, Mu-type opioid receptor. Described as §1. This is another data set of the same source.

Calls of active or inactive are those of the source. No cut-off for these calls is given here. Starred links: 1 amine or outer side, 2 acyl side, 3 side chain; linkers in the order of their positions; H or OH if unused. Non-standard residues stand in square brackets, D forms with d. Residues, ends and D or L forms follow the SMILES beside them. X1 = NCCCC[C@H](C(=O)[C@H](CO)N[*:1])C(=O)[*:2]

T1 sequence (P35372 whole entry): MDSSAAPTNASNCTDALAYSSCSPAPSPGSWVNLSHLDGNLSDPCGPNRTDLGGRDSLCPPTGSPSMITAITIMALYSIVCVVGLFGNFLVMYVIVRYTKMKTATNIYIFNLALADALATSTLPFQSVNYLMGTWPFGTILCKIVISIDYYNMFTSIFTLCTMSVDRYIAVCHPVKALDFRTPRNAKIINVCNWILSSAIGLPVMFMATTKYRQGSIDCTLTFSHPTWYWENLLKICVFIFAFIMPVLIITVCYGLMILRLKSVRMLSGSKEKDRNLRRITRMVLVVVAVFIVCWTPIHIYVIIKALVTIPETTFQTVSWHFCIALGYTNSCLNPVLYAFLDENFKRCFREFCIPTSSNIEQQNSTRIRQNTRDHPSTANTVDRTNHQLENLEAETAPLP

With `CC[C@H](C)[C@H](NC(=O)[C@H](Cc1ccc(O)cc1)NC(=O)[C@H](Cc1c[nH]cn1)NC(=O)[C@H](CCCN=C(N)N)NC(=O)[C@H](CC(C)C)NC(=O)[C@H](C)NC(=O)[C@@H](N)CO)C(=O)N[C@@H](CC(N)=O)C(=O)N[C@@H](CC(C)C)C(=O)N[C@H](C(=O)N[C@H](C(=O)N[C@@H](CCCN=C(N)N)C(=O)N[C@@H](CCC(N)=O)C(=O)N[C@@H](CCCN=C(N)N)C(=O)N[C@@H](Cc1ccc(O)cc1)C(=O)O)[C@@H](C)O)[C@@H](C)CC`, on Mu-type opioid receptor [1], the IC50 turned out to be 10 µM. This compound also returned a Ki on Mu-type opioid receptor [2] of 5.1 µM.

In turn, `NCCCC[C@H](C(=O)[C@H](CO)NC(=O)[C@@H]1CCCN1C(=O)[C@@H](N)Cc1ccc(O)cc1)C(=O)N1CCC[C@H]1C(=O)N[C@@H](CC(=O)O)C(=O)O` (H-YP[X1]PD-OH) had an IC50 against Mu-type opioid receptor [1] of 1.8 µM. Besides, the affinity at Mu-type opioid receptor [2], expressed as Ki, was 1 µM.

On to `NCCCC[C@H](C(=O)[C@H](CO)NC(=O)[C@@H]1CCCN1C(=O)[C@@H](N)Cc1ccc(O)cc1)C(=O)N1CCC[C@H]1C(=O)N[C@@H](CC(=O)O)C(=O)N[C@@H](CC(N)=O)C(=O)N1CCC[C@H]1C(=O)O` (H-YP[X1]PDNP-OH), for which the IC50 entry on Mu-type opioid receptor [3] is “Not Active”. Besides, the Ki entry at Mu-type opioid receptor [4] is “Not Active”.

Compound `NC(=O)[C@@H]1CCCN1C(=O)[C@H](Cc1ccccc1)NC(=O)[C@@H]1CCCN1C(=O)[C@@H](N)Cc1ccc(O)cc1` [MORPHICEPTIN] (H-YPFP-NH2) came in with an IC50 on Mu-type opioid receptor [1] of 0.32 µM. At Mu-type opioid receptor [2], affinity was put at a Ki of 0.15 µM.

On Mu-type opioid receptor [1], H-FPSKP-OH showed an IC50 of 15 µM. Moreover, the affinity on Mu-type opioid receptor [2], expressed as Ki, was 7.5 µM.

In the case of H-INLITRQRY-OH, the Ki entry at Mu-type opioid receptor [4] is recorded as “Not Active”. The NA result on Mu-type opioid receptor [5] is “inactive”.

The values are drawn from ChEMBL document CHEMBL1136639, “Synthesis and binding affinity of neuropeptide Y at opiate receptors” (Bioorg Med Chem Lett, 2003).
